From PubChem BioAssay AID248 (DTP/NCI, 2004)
Values joined by “and” are separate entries in the source; they are usually repeats but may differ in a detail not shown here. Identical values can stand only once. Toxic doses and inconclusive results are not listed. Cut-off read from the data, not from the text of the source: active = T/C of 150% or more; inactive = T/C below 125%.

Tested on: L1210 leukemia ip in BDF1 mice, survival T/C
Assay: NCI In Vivo Anticancer Drug Screen. Data for tumor model L1210 Leukemia (intraperitoneal) in B6D2F1 (BDF1) mice
Details: endpoint: mean survival time, higher = longer survival
Procedure, shortened: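 In this screen, tumor-bearing mice given compound are compared to those given vehicle, and their survival values are reported as a treated-to-control quotient.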

[1] = dose: 100.0 mg/kg/injection, schedule: Q01DX001 (ip), vehicle: saline
[2] = dose: 200.0 mg/kg/injection, schedule: Q01DX001 (ip), vehicle: saline
[3] = dose: 400.0 mg/kg/injection, schedule: Q01DX001 (ip), vehicle: saline
[4] = dose: 100.0 mg/kg/injection, schedule: Q01DX009 (ip), vehicle: Klucel (hydroxypropylcellulose) (HPC)
[5] = dose: 200.0 mg/kg/injection, schedule: Q01DX009 (ip), vehicle: Klucel (hydroxypropylcellulose) (HPC)
[6] = dose: 400.0 mg/kg/injection, schedule: Q01DX009 (ip), vehicle: Klucel (hydroxypropylcellulose) (HPC)
[7] = dose: 100.0 mg/kg/injection, schedule: Q04DX003 (ip), vehicle: saline with Tween-80
[8] = dose: 200.0 mg/kg/injection, schedule: Q04DX003 (ip), vehicle: saline with Tween-80
[9] = dose: 400.0 mg/kg/injection, schedule: Q04DX003 (ip), vehicle: saline with Tween-80

Measured: T/C

CC(C)(C)NCCC(=O)c1ccccc1
inactive: dose: 12.5 mg/kg/injection, schedule: Q04DX003 (ip), vehicle: saline 98 % of control | dose: 25.0 mg/kg/injection, schedule: Q04DX003 (ip), vehicle: saline 102 % of control | dose: 50.0 mg/kg/injection, schedule: Q04DX003 (ip), vehicle: saline 101 % of control

Cc1cc(NS(=O)(=O)c2ccc(N=Nc3ccc(N)nc3N)cc2)nc(C)n1
inactive: [1] 102 % of control | [2] 105 % of control | [3] 100 % of control

CC(=O)Nc1ccccc1I
inactive: [4] 104 % of control | [5] 96 % of control | [6] 95 % of control

c1ccc2sc(SSc3nc4ccccc4s3)nc2c1
inactive: dose: 50.0 mg/kg/injection, schedule: Q01DX001 (ip), vehicle: saline 96 % of control | [1] 98 % of control | [4] 86 % of control | dose: 100.0 mg/kg/injection, schedule: Q04DX003 (ip), vehicle: Klucel (hydroxypropylcellulose) (HPC) 97 % of control | [2] 92 % of control | [5] 96 % of control | dose: 200.0 mg/kg/injection, schedule: Q04DX003 (ip), vehicle: Klucel (hydroxypropylcellulose) (HPC) 94 % of control | [3] 104 % of control | [6] 90 % of control | dose: 400.0 mg/kg/injection, schedule: Q04DX003 (ip), vehicle: Klucel (hydroxypropylcellulose) (HPC) 90 % of control

CC(C)(C)NC(=O)Nc1ccc(Cl)c(Cl)c1
inactive: [1] 97 % of control | [2] 100 % of control | [3] 95 % of control

COc1cc(Br)c(CCC(N)=O)cc1OC
inactive: [7] 96 % of control | [8] 95 % of control | [9] 93 % of control

O=S(=O)(O)CCN(CCO)CCO
inactive: dose: 100.0 mg/kg/injection, schedule: Q01DX009 (ip), vehicle: saline 98 % of control | dose: 100.0 mg/kg/injection, schedule: Q04DX003 (ip), vehicle: saline 97 % of control | dose: 200.0 mg/kg/injection, schedule: Q01DX009 (ip), vehicle: saline 101 % of control | dose: 200.0 mg/kg/injection, schedule: Q04DX003 (ip), vehicle: saline 101 % of control | dose: 400.0 mg/kg/injection, schedule: Q01DX009 (ip), vehicle: saline 109 % of control | dose: 400.0 mg/kg/injection, schedule: Q04DX003 (ip), vehicle: saline 94 % of control

NC(=O)c1cc(C(=O)O)ccc1N(N)O
inactive: [7] 101 % of control | [8] 101 % of control | [9] 90 % of control

N#CC(CCCc1ccccc1)c1ccc(N)cc1 (centres undefined)
inactive: dose: 100.0 mg/kg/injection, schedule: Q01DX001 (ip), vehicle: Klucel (hydroxypropylcellulose) (HPC) 91 % of control | dose: 200.0 mg/kg/injection, schedule: Q01DX001 (ip), vehicle: Klucel (hydroxypropylcellulose) (HPC) 94 % of control | dose: 400.0 mg/kg/injection, schedule: Q01DX001 (ip), vehicle: Klucel (hydroxypropylcellulose) (HPC) 103 % of control

NC(=O)c1nc2n(c1N)CCC2
inactive: dose: 100.0 mg/kg/injection, schedule: Q01DX009 (ip), vehicle: saline with Tween-80 108 % of control | [7] 97 % of control | dose: 200.0 mg/kg/injection, schedule: Q01DX009 (ip), vehicle: saline with Tween-80 110 % of control | [8] 100 % of control | dose: 400.0 mg/kg/injection, schedule: Q01DX009 (ip), vehicle: saline with Tween-80 105 % of control | [9] 94 % of control

C=CCOC(=O)c1ccco1
inactive: dose: 25.0 mg/kg/injection, schedule: Q01DX009 (ip), vehicle: Klucel (hydroxypropylcellulose) (HPC) 98 % of control | dose: 50.0 mg/kg/injection, schedule: Q01DX009 (ip), vehicle: Klucel (hydroxypropylcellulose) (HPC) 106 % of control | [4] 94 % of control and 96 % of control

O=C1CCN(C2(c3ccccc3)CCCCC2)CC1
inactive: dose: 100.0 mg/kg/injection, schedule: Q04DX002 (ip), vehicle: saline 92 % of control | dose: 200.0 mg/kg/injection, schedule: Q04DX002 (ip), vehicle: saline 103 % of control | dose: 400.0 mg/kg/injection, schedule: Q04DX002 (ip), vehicle: saline 97 % of control

CC(O)C1CCN(Cc2ccccc2)CC1 (centres undefined)
inactive: dose: 50.0 mg/kg/injection, schedule: Q01DX001 (ip), vehicle: carboxymethylcellulose (CMC) 101 % of control | dose: 100.0 mg/kg/injection, schedule: Q01DX001 (ip), vehicle: carboxymethylcellulose (CMC) 108 % of control | dose: 200.0 mg/kg/injection, schedule: Q01DX001 (ip), vehicle: carboxymethylcellulose (CMC) 106 % of control

O=[As](O)(c1cccc(Cl)c1)C1CCCCC1O (centres undefined)
inactive: dose: 25.0 mg/kg/injection, schedule: Q04DX003 (ip), vehicle: saline with Tween-80 91 % of control | dose: 50.0 mg/kg/injection, schedule: Q04DX003 (ip), vehicle: saline with Tween-80 89 % of control
